Reference: ChEMBL document CHEMBL1155127, “Paw paw and cancer: annonaceous acetogenins from discovery to commercial products” (J Nat Prod, 2008)

Assays:
KB = experiment: Antitumor activity against human KB cell xenografted mouse assessed as inhibition of tumor growth at 900 ug/kg administered every 2 days for 6 days; format: functional
[1] = Antitumor activity against multidrug resistant human KBv200 cell xenografted mouse assessed as inhibition of tumor growth at 900 ug/kg administered every 2 days for 6 days; format: functional
P388 [2] = experiment: Antitumor activity against mouse P388 cells xenografted mouse at 0.95 mg/kg/day for 10 days by 3PS assay; format: functional
P388 [3] = experiment: Antitumor activity against mouse P388 cells xenografted mouse at 0.025 mg/kg/day for 10 days by 3PS assay; format: functional
P388 [4] = experiment: Antitumor activity against mouse P388 cells at 25 ug/kg by in vivo 3PS assay; format: functional
L1210 [5] = experiment: Antitumor activity against mouse L1210 cell xenografted mouse at 200 ug/kg; format: functional
Mus musculus = experiment: Toxicity in mouse P388 cells xenografted mouse at 0.22 mg/kg/day for 10 days; conditions: in vivo, 240 h
L1210 [6] = experiment: Antitumor activity against mouse L1210 cell xenografted mouse at 400 ug/kg; format: functional
A2780 [7] = experiment: Antitumor activity against human A2780 cell xenografted athymic mouse at 125 ug/kg/day; format: functional; conditions: read-out: TGI
A2780 [8] = experiment: Antitumor activity against human A2780 cell xenografted athymic mouse at 1000 ug/kg/day; format: functional; conditions: read-out: TGI
L1210 [9] = experiment: Antitumor activity against mouse L1210 cell xenografted mouse at 15000 ug/kg; format: functional
P388 [10] = experiment: Antitumor activity against mouse P388 cells at 250 ug/kg by in vivo 3PS assay; format: functional
P388 [11] = experiment: Antitumor activity against mouse P388 cells in at 1.4 mg/kg by in vivo 3PS assay; format: functional

Compound: CCCCC[C@@H](O)[C@H](O)CCC[C@@H](O)[C@H]1CC[C@H]([C@H]2CC[C@H]([C@H](O)CCCCCCCCCCCCC3=C[C@H](C)OC3=O)O2)O1
- inhibition in vivo at 0.9 mg/kg (KB): 52.3%
- inhibition in vivo at 0.9 mg/kg [1]: 56.5%

Compound: CCCCCCCCCCCC[C@@H](O)[C@H]1CC[C@H]([C@H](O)CCCC[C@H](O)CCCCC[C@@H](O)CC2=CC(C)OC2=O)O1 (some centres undefined) [ANNONACIN]
- T/C (P388 [2]): 124%

Compound: CCCCCCCCCCC(O)C1CCC(C2CCC(C(O)CCCCCCCC[C@H](O)CC3=C[C@@H](C)OC3=O)O2)O1 (some centres undefined) [ASIMICIN]
- T/C (P388 [3]): 124%
- T/C (P388 [4]): 124%
- T/C (L1210 [5]): 131%

Compound: CCCCCCCCCC[C@@H](O)[C@H]1CC[C@H]([C@H]2CC[C@H]([C@H](O)CCCCCCCCCC[C@@H](O)CC3=C[C@H](C)OC3=O)O2)O1 [ASIMICIN]
- Activity (Mus musculus): Toxic

Compound: CCCCCCCCCC[C@H](O)[C@H]1CC[C@H]([C@H]2CC[C@H]([C@H](O)CCCCCCCCCC[C@@H]3CC(CC(C)=O)C(=O)O3)O2)O1 (some centres undefined) [BULLATACINONE]
- T/C (L1210 [6]): 144%
- inhibition in vivo at 0.125 mg/kg/day (A2780 [7]): 52%

Compound: CCCCCCCCCC[C@H](O)[C@H]1CC[C@H]([C@H](O)CC[C@H](O)[C@@H]2CC[C@@H](CCCCCCC[C@@H](O)CC3=C[C@H](C)OC3=O)O2)O1 [BULLATALICIN]
- inhibition in vivo at 1 mg/kg/day (A2780 [8]): 75%

Compound: CC(=O)O[C@H]1C(=O)[C@@]2(C)[C@H]([C@H](OC(=O)c3ccccc3)[C@]3(O)C[C@H](OC(=O)[C@H](O)[C@@H](NC(=O)c4ccccc4)c4ccccc4)C(C)=C1C3(C)C)[C@]1(OC(C)=O)CO[C@@H]1C[C@@H]2O [PACLITAXEL]
- T/C (L1210 [9]): 139%

Compound: CCCCCCCCCCC(O)C1CCC(C2CCC(C(O)CCCCCCCCCCC(O)CC3=CC(C)OC3=O)O2)O1 (centres undefined) [ROLLINIASTATIN]
- T/C (P388 [10]): 128%

Compound: CCCCCCCCCCC(O)C1CCC(C2CCC(C(O)C(=O)CCCCCCCCCCCC3CC(C)OC3=O)O2)O1 (centres undefined) [ROLLINONE]
- T/C (P388 [11]): 147%

Compound: CCCCCCCCCC[C@H](OC(C)=O)[C@H]1CC[C@H]([C@H]2CC[C@H]([C@H](O)CCCCCCCCCCCCC3=C[C@H](C)OC3=O)O2)O1 [UVARICIN]
- T/C (P388 [11]): 157%
